Key:
[1] = test system: HT-29 cells; assay: MTT assay on HT-29 human colon carcinoma cell line; assay type: cell-based; settings: MTT assay after 5 days, read-out: IC90 HT29
Procedure: To show the activity of the compounds according to this invention, their effects on a human colon carcinoma cell line was evaluated using a standard MTT-assay. MTT (3-(4,5-dimethylthiazol-2-yl)-2,5-diphenyl tetrazolium bromide) is widely used for the quantitative determination of cytotoxic effects or in vitro chemosensitivity of tumor cells. The assay is based on the cleavage of the yellow tetrazolium salt (MTT) to purple formazan crystals by metabolic active cells. For details, see Rubinstein, L. V., et al., J. Natl. Cancer Inst. 82 (1990) 1113-1118.
We proceeded as follows: HT-29 cells (human colon carcinoma cell line, ATCC-No. HTB-38) were cultivated in RPMI 1640 medium with GlutaMAX™ I (Invitrogen, Cat-No. 61870-010), 2.5% fetal calf serum (FCS, Sigma Cat-No. F4135 (FBS)), 2 mM glutamine, 100 units/ml penicillin, 100 μg/ml streptomycin (=Pen/Strep from Invitrogen Cat. No. 15140). For the assay the cells were seeded in 384 well plates, 900 cells per well, in the same medium. At the next day, the compounds (dissolved 10 mM in DMSO) were added in various concentrations ranging from 30 μM to 1.5 nM. After 5 days, the MTT assay was done mainly according to the instructions of the manufacturer (Cell proliferation kit I, MTT, from Roche Molecular Biochemicals). In brief: MTT labeling reagent was added to a final concentration of 0.5 mg/ml, added and incubated for 4 hrs at 37° C., 5% CO2. During this incubation time purple formazan crystals are formed. After addition of the solubilization solution (20% Sodium Dodecyl Sulfate (SDS) in 0.02 M HCl) the plates were incubated overnight at 37° C., 5% CO2. After careful mixing, the plates were measured in Victor 2 (scanning multiwell spectrophotometer, Wallac) at 550 nm.
A decrease in number of living cells results in a decrease in the total metabolic activity in the sample. The decrease directly correlates to the amount of purple colour resulting from the solubilization of the purple formazan crystals. Determination of IC90 was done using XL-fit (XLfit software (ID Business Solution Ltd., Guilford, Surrey, UK)).

[2] = target: T1, recombinant HDAC-1 (Homo sapiens, UniProt Q13547); assay: HDAC biochemical quench assay; settings: recombinant HDAC-1 purified from HEK 293 cells; 1 μM peptide substrate, 90 min at room temperature
T1 construct: made in house; host or cells: HEK 293 cells (ATCC-No. CRL 1573)
T1 sequence (Q13547 whole entry, species assumed): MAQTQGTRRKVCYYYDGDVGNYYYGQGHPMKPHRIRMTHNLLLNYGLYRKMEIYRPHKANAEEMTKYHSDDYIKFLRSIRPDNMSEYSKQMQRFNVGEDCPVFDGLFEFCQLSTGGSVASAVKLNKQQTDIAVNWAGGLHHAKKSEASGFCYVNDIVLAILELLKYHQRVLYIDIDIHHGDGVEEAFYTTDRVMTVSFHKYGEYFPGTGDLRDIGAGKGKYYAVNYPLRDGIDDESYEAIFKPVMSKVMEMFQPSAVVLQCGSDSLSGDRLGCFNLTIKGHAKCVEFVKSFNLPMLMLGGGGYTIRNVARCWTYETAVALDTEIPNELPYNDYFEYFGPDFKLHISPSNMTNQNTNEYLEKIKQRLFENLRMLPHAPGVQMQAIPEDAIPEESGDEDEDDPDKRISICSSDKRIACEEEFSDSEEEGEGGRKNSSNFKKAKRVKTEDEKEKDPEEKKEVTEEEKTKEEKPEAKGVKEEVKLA
Excerpt: The function of histone deacetylase (HDAC) is the deacetylation of lysines in e.g. histone H4. A peptide of 17 amino acids derived from histone H4 was labeled with tetramethylrhodamine (TAMRA, fluorophore, Invitrogen) at the C-terminus and QSY-7™ (quencher dye, Invitrogen) at the N-terminus and was used as a substrate (TAMRA—first 17 aa of histone H4—QSY7). Following deacetylation by HDAC, the enzyme Lys C is able to cleave the peptide after lysine. […] Inhibition of HDAC by compounds results in low signals because Lys C could not cleave the substrate and the quench effect persists.
For dose response curves, 10 concentrations were diluted 1:3 starting at 30 μM. 10 μl compound dilution were put into each well of a 384 well plate. 10 μl HDAC were added (recombinant HDAC-1 purified from HEK 293 cells (human embryonic kidney cell line transformed by Adenovirus 5 fragments, ATCC-No. CRL 1573); enzyme activity has to be assessed for each preparation). 10 μl peptide substrate was added (1 μM final concentration, derived from 1 mM stock solution diluted 1:1000 in test buffer). After 90 min incubation at room temperature, the reaction was stopped by addition of 20 μl test buffer including 3 μg/ml Lys C and 0.075% Sodium Dodecyl Sulfate (SDS). After overnight incubation the fluorescence signal of TAMRA was measured (Victor 2 from Wallac, absorption 544 nm, emission 590 nm). […]

Question: For CC(NC(=O)c1ccc(C(=O)NO)s1)c1cccc(SC(F)(F)F)c1 (centres unmarked) [Example 2-2, Thiophene-2,5-dicarboxylic acid 2-hydroxyamide 5-{[1-(3-trifluoromethylsulfanyl-phenyl)-ethyl]-amide}], which IC90 [1] is on record?
Answer: 210 nM

Question: For CC(NC(=O)c1ccc(C(=O)NO)s1)c1ccc(SC(F)(F)F)cc1 (centres unmarked) [Example 1, Thiophene-2,5-dicarboxylic acid 2-hydroxyamide 5-{[1-(4-trifluoromethylsulfanyl-phenyl)-ethyl]-amide}], which IC90 [1] is on record?
Answer: 340 nM

Question: Which IC90 [1] does the source give for CC(NC(=O)c1ccc(C(=O)NO)s1)c1cccc(OC(F)(F)F)c1 (centres unmarked) [Example 3, Thiophene-2,5-dicarboxylic acid 2-hydroxyamide 5-{[1-(3-trifluoromethoxy-phenyl)-ethyl]-amide}] here?
Answer: 220 nM

Question: How did the IC50 [2] turn out when CSc1ccc(C(C)NC(=O)c2ccc(C(=O)NO)s2)cc1 (centres unmarked) [Example 2-3, Thiophene-2,5-dicarboxylic acid 2-hydroxyamide 5-{[1-(4-methylsulfanyl-phenyl)-ethyl]-amide}] was run?
Answer: 2.26 nM

Question: With CC(NC(=O)c1ccc(C(=O)NO)s1)c1ccc(OC(F)(F)F)cc1 (centres unmarked) [Example 2-1, Thiophene-2,5-dicarboxylic acid 2-hydroxyamide 5-{[1-(4-trifluoromethoxy-phenyl)-ethyl]-amide}] as the compound, how does the IC50 [2] read?
Answer: 3.11 nM
